Reference: ChEMBL document CHEMBL1201862, “PubChem BioAssay data set” (2004)
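Where inhibition never reached the appropriate level, the endpoint shown equals the highest concentration tested. Otherwise, values were interpolated linearly from a five-concentration, 48-hour dose response in 96-well plates. GI50: concentration for 50% inhibition of growth.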 Calls of active or inactive are those of the source. Rule as the data show it: active = GI50 up to about 1.1 µM and inactive = higher.

Columns and labels:
Assay in all cases: NCI tumour cell line growth inhibition, 48 h
786-0 = system: 786-0
A498 = system: A498
A549 = system: A549
ACHN = system: ACHN
BT-549 = system: BT-549
CAKI-1 = system: CAKI-1
CCRF-CEM = system: CCRF-CEM
COLO 205 = system: COLO 205
DU-145 = system: DU-145
EKVX = system: EKVX
HCC 2998 = system: HCC 2998
HCT-116 = system: HCT-116
HCT-15 = system: HCT-15
HL-60 = system: HL-60
HOP-62 = system: HOP-62
HOP-92 = system: HOP-92
HT-29 = system: HT-29
Hs-578T = system: Hs-578T
IGROV-1 = system: IGROV-1
K562 = system: K562
KM12 = system: KM12
LOX IMVI = system: LOX IMVI
M14 = system: M14
MCF7 = system: MCF7
MDA-MB-231 = system: MDA-MB-231
MDA-MB-435 = system: MDA-MB-435
MDA-N = system: MDA-N
MOLT-4 = system: MOLT-4
Malme-3M = system: Malme-3M
NCI-H226 = system: NCI-H226
NCI-H23 = system: NCI-H23
NCI-H460 = system: NCI-H460
NCI-H522 = system: NCI-H522
NCI/ADR-RES = system: NCI/ADR-RES
OVCAR-3 = system: OVCAR-3
OVCAR-4 = system: OVCAR-4
OVCAR-5 = system: OVCAR-5
OVCAR-8 = system: OVCAR-8
PC-3 = system: PC-3
RPMI-8226 = system: RPMI-8226
RXF 393 = system: RXF 393
SF-268 = system: SF-268
SF-295 = system: SF-295
SF-539 = system: SF-539
SK-MEL-28 = system: SK-MEL-28
SK-MEL-2 = system: SK-MEL-2
SK-MEL-5 = system: SK-MEL-5
SK-OV-3 = system: SK-OV-3
SN12C = system: SN12C
SNB-19 = system: SNB-19
SNB-75 = system: SNB-75
SW-620 = system: SW-620
T47D = system: T47D
TK-10 = system: TK-10
U-251 = system: U-251
UACC-257 = system: UACC-257
UACC-62 = system: UACC-62
UO-31 = system: UO-31

Compound: CS(=O)(=O)O.[Ag]
- GI50 (786-0): 16.3 µM (inactive)
- GI50 (A498): 20.8 µM (inactive)
- GI50 (A549): 10.3 µM (inactive)
- GI50 (ACHN): 4.53 µM (inactive)
- GI50 (BT-549): 20.8 µM (inactive)
- GI50 (CAKI-1): 17.8 µM (inactive)
- GI50 (CCRF-CEM): 2.46 µM (inactive)
- GI50 (COLO 205): 2.16 µM (inactive)
- GI50 (DU-145): 17.1 µM (inactive)
- GI50 (EKVX): 21.9 µM (inactive)
- GI50 (HCC 2998): 14.2 µM (inactive)
- GI50 (HCT-116): 5.04 µM (inactive)
- GI50 (HCT-15): 18.7 µM
- GI50 (HL-60): 2.79 µM (inactive)
- GI50 (HOP-62): 25.4 µM (inactive)
- GI50 (HOP-92): 2.14 µM (inactive)
- GI50 (HT-29): 19.3 µM (inactive)
- GI50 (Hs-578T): 37.7 µM (inactive)
- GI50 (IGROV-1): 1.6 µM (inactive)
- GI50 (K562): 2.23 µM (inactive)
- GI50 (KM12): 29 µM (inactive)
- GI50 (LOX IMVI): 3.09 µM (inactive)
- GI50 (M14): 3.17 µM (inactive)
- GI50 (MCF7): 4.03 µM (inactive)
- GI50 (MDA-MB-231): 21.3 µM (inactive)
- GI50 (MDA-MB-435): 2.91 µM (inactive)
- GI50 (MDA-N): 7.1 µM (inactive)
- GI50 (MOLT-4): 2.32 µM (inactive)
- GI50 (Malme-3M): 1.92 µM (inactive)
- GI50 (NCI-H226): 25.1 µM (inactive)
- GI50 (NCI-H23): 23.2 µM (inactive)
- GI50 (NCI-H460): 20.2 µM (inactive)
- GI50 (NCI-H522): 1.92 µM (inactive)
- GI50 (NCI/ADR-RES): 29.8 µM (inactive)
- GI50 (OVCAR-3): 23.8 µM (inactive)
- GI50 (OVCAR-4): 2.33 µM (inactive)
- GI50 (OVCAR-5): 19.3 µM (inactive)
- GI50 (OVCAR-8): 31.6 µM (inactive)
- GI50 (PC-3): 14.2 µM (inactive)
- GI50 (RPMI-8226): 2.49 µM (inactive)
- GI50 (RXF 393): 18.8 µM (inactive)
- GI50 (SF-268): 16 µM (inactive)
- GI50 (SF-295): 34.2 µM (inactive)
- GI50 (SF-539): 17.3 µM (inactive)
- GI50 (SK-MEL-28): 18.4 µM (inactive)
- GI50 (SK-MEL-2): 15.4 µM (inactive)
- GI50 (SK-MEL-5): 5.3 µM (inactive)
- GI50 (SK-OV-3): 18.3 µM (inactive)
- GI50 (SN12C): 19.1 µM (inactive)
- GI50 (SNB-19): 29.3 µM (inactive)
- GI50 (SNB-75): 12.3 µM (inactive)
- GI50 (SW-620): 3.01 µM (inactive)
- GI50 (T47D): 2.15 µM (inactive)
- GI50 (TK-10): 2.42 µM (inactive)
- GI50 (U-251): 16.3 µM (inactive)
- GI50 (UACC-257): 10.2 µM (inactive)
- GI50 (UACC-62): 17.9 µM (inactive)
- GI50 (UO-31): 1.78 µM (inactive)
